# Reference: US7435407B2, “Inhibition of olfactory neurosensory function to treat eating disorders and obesity” (Compellis Pharmaceuticals, priority 2002, dated 2008)
# What was measured:
# [1] = Food intake in food-deprived rats after intranasal administration; type: in vivo, rat
# Description: Male Sprague-Dawley rats, 150-175 g at the start of the experiments (Charles River Laboratories, Wilmington, Mass.) were housed individually in suspended wire mesh cages; maintained on a reversed-lighting schedule (lights-on at 7 p.m., lights-off at 7 a.m.); and acclimated to our climate controlled animal facility and to the test diets for 7 days prior to experimentation. As the experiments in food-deprived rats were performed during the dark cycle, a dull red light (25 watt) was used to help with placement and weighing of the food jars.
# Rats had ad libitum access to tap water and food (Rodent Laboratory Chow No. 5001-pellet form, Purina) on non-testing days. A mush diet, used for experiments on food-deprived animals, and composed of equal parts by weight of ground rodent chow (Purina, # 5001-meal form) and a 4% nutrient agar solution (Teklad Diets) was presented to the animals in glass jars. […]
# One hour after administration, pre-weighed food jars were introduced into the cage and a sheet of clean white paper placed under each cage to catch any spillage. The amount of food consumed after 1, 2 and 4 hours was determined to the nearest 0.01 g. […]
# One hour later pre-weighed food jars were introduced into the cage and a sheet of clean white paper placed under each cage to catch any spillage. The amount of food consumed after 1, 2 and 4 hours was determined to the nearest 0.01 g.
# [2] = Rota-Rod test after intranasal administration; type: in vivo, rat; settings: intranasal 1 mg/kg; 6 rpm; sessions 0-60 minutes after administration
# Description: Two groups of rats (12 rats each) were tested. Each rat went through 8 sessions on the rota-rod: 3 sessions before drug administration (pretest, time −45, −30, and −15 minutes); 1 session immediately after the drug was administered (time 0); and 4 sessions after drug administration (time 15, 30, 45, and 60 minutes).
# A speed of 6 rpm was used, and diltiazem was administered, as described above, intra-nasally at 1 mg/kg.
# olfactory epithelium = test: Electro-olfactory (EOG) recording of olfactory epithelium response to odorant Citralva; type: in vivo, mice; settings: 10 μl/nostril intranasal, recording 10 min later
# Description: A detailed description of the method employed is provided, e.g., by Wong et al. (Neuron 2000: 27: 487-97), and Scott (J Neurosci 2000; 15:4721-31). Briefly, six week old mice were used and each mouse was given 10 μl/nostril of Diltiazem at 10 μM, 100 μM, or saline. It was returned to home cage and euthanized 10 min later for electro-olfactory (EOG) recording. The odorant was Ciltralva at 5 μM. Also included was a “no treatment” control.
structure (smiles),measurement,setting,value
"COc1ccc([C@@H]2Sc3ccccc3N(CCN(C)C)C(=O)[C@@H]2OC(C)=O)cc1 [diltiazem, Diltiazem]",optimal dose (concentration of solution) for reduction of food intake,"[1]; dosing study, intranasal 20 μL/nostril, 0.02, 0.2 and 2 mg/kg, strong trend (FIG. 2)",0.2-20 % w/v
same,amount of food consumed,"[1]; intranasal 20 μL/nostril, 0.02-2 mg/kg, food given 1 hour after administration, consumed after 1, 2 and 4 hours, versus placebo (FIG. 1)",consumed significantly less food
same,"activity (balance and agility) in Rota-Rod test, drug versus vehicle group",[2],no indications of a difference in activity
same,effect on olfactory nerve activity (EOG response to Citralva 5 μM),olfactory epithelium; 10 μM,little effect
same,effect on olfactory nerve response (EOG response to Citralva 5 μM),olfactory epithelium; 100 μM,blocked
